In the NIST ThermoML archive (doi:10.1021/je060271a):

Conditions: 323.15 K, Liquid, Vibrating tube method

CCCCCC(=O)OCC(COC(=O)CCCCC)(COC(=O)CCCCC)COC(=O)CCCCC [pentaerythritol tetrahexanoate]
Conditions | mass density [kg/m3]
616.8 kPa | 973.1
618.6 kPa | 973.1
620.6 kPa | 973.1
623.1 kPa | 973.3
625.3 kPa | 973.2
627.3 kPa | 973.1
629.2 kPa | 973.2
631.2 kPa | 973.1
633 kPa | 973.1
634.7 kPa | 973.1
637.3 kPa | 973.1
639.4 kPa | 973.1
641.7 kPa | 973
643.9 kPa | 973
659.4 kPa | 973.1
662 kPa | 973.2
664.3 kPa | 973.2
666.7 kPa | 973.1
668.8 kPa | 973.2
671.2 kPa | 973.2
674 kPa | 973.1
675.9 kPa | 973.1
678.5 kPa | 973.1
681.8 kPa | 973.2
684.1 kPa | 973.2
699.5 kPa | 973.1
702.1 kPa | 973.1
704.4 kPa | 973.1
707.2 kPa | 973.2
709.1 kPa | 973.2
712 kPa | 973.1
741.4 kPa | 973.1
744 kPa | 973.3
746.6 kPa | 973.1
749.6 kPa | 973.2
752.5 kPa | 973.1
755.1 kPa | 973.3
757.9 kPa | 973.2
760.3 kPa | 973.2
765.9 kPa | 973.2
768.5 kPa | 973.2
772.1 kPa | 973.2
774.9 kPa | 973.1
777.5 kPa | 973.3
780 kPa | 973.2
783.1 kPa | 973.2
785.3 kPa | 973.1
788.3 kPa | 973.3
791.4 kPa | 973.2
794.4 kPa | 973.2
796 kPa | 973.2
798.4 kPa | 973.3
815.2 kPa | 973.3
817.7 kPa | 973.3
821 kPa | 973.3
824.1 kPa | 973.4
827.1 kPa | 973.3
830.2 kPa | 973.2
833.5 kPa | 973.3
836.8 kPa | 973.2
839.5 kPa | 973.3
842.8 kPa | 973.2
845.5 kPa | 973.2
849.1 kPa | 973.3
851.9 kPa | 973.2
855.5 kPa | 973.3
871.5 kPa | 973.2
875.2 kPa | 973.2
877.8 kPa | 973.2
880.9 kPa | 973.3
884.5 kPa | 973.3
887.3 kPa | 973.2
890.8 kPa | 973.2
894.6 kPa | 973.2
897.6 kPa | 973.2
900.3 kPa | 973.2
904 kPa | 973.3
906.8 kPa | 973.3
910.8 kPa | 973.3
913.5 kPa | 973.3
920.1 kPa | 973.2
926.9 kPa | 973.3
930.6 kPa | 973.3
933.3 kPa | 973.3
936.1 kPa | 973.2
940 kPa | 973.3
942.9 kPa | 973.4
947.1 kPa | 973.3
950.7 kPa | 973.3
953.5 kPa | 973.3
957 kPa | 973.4
960.8 kPa | 973.3
963.6 kPa | 973.4
968.1 kPa | 973.2
971.9 kPa | 973.2
975.6 kPa | 973.4
978.9 kPa | 973.4
983 kPa | 973.3
987 kPa | 973.3
991 kPa | 973.4
995 kPa | 973.4
999.9 kPa | 973.3
1003.3 kPa | 973.4
1007 kPa | 973.4
1011.7 kPa | 973.4
1016 kPa | 973.4
1062.4 kPa | 973.4
1065.9 kPa | 973.3
1069.5 kPa | 973.4
1073.9 kPa | 973.3
1077.3 kPa | 973.4
1082 kPa | 973.5
1085.7 kPa | 973.4
1090.4 kPa | 973.5
1094.2 kPa | 973.5
1099 kPa | 973.5
1103 kPa | 973.5
1128.6 kPa | 973.4
1132.2 kPa | 973.4
1137.1 kPa | 973.4
1140.7 kPa | 973.5
1145.6 kPa | 973.5
1149.6 kPa | 973.5
1154.3 kPa | 973.5
1159 kPa | 973.5
1163.8 kPa | 973.5
1243.7 kPa | 973.6
1248 kPa | 973.6
1253.4 kPa | 973.5
1258.3 kPa | 973.4
1263.5 kPa | 973.5
1269.2 kPa | 973.5
1273.9 kPa | 973.7
1278.6 kPa | 973.5
1284.5 kPa | 973.6
1289.2 kPa | 973.6
1294.7 kPa | 973.5
1299.6 kPa | 973.6
1305.5 kPa | 973.5
1310 kPa | 973.5
1315.4 kPa | 973.5
1319.9 kPa | 973.5
1325.8 kPa | 973.5
1331.7 kPa | 973.6
1411.8 kPa | 973.6
